Patent publication US9023865B2, “Compounds that are ERK inhibitors” (Merck Sharp & Dohme Corp., priority 2011, dated 2015)
Structures can show the parent of a compound that is named as a salt. Where two headings read alike, the source gives them in different places.

Molecular target: Active Human ERK2 (hERK2) (Homo sapiens (Human), UniProt P28482)
Assay: Active Human ERK2 (hERK2) Activity Assay (IMAP-FP)
Type: biochemical
Experimental: Assays Active Human ERK2 (hERK2) Activity Assay:
Activated ERK2 activity was determined in an IMAP-FP assay (Molecular Devices). […] The final reaction in each well of 25 μL consists of 0.5 nM hERK2, 900 nM unlabeled peptide, 80 nM labeled-peptide, and 30 μM ATP. Phosphorylation reactions were allowed to proceed for 60 minutes and were immediately quenched by the addition of […] IMAP detection beads (1:1000 dilutions) in IMAP binding buffer (Molecular Devices) with 24 mM NaCl. Plates were read on EnVision reader after 60 minutes binding equilibration using Fluorescence Polarization protocol (Perkin Elmer).

[1] = phosphorylated active hERK2, 30 μM ATP, average, read-out: ERK 2 Human average IC50
[2] = read-out: AERK2 IC50 (Active human ERK2 Activity Assay)

Active Human ERK2 (hERK2), sequence (P28482 whole entry): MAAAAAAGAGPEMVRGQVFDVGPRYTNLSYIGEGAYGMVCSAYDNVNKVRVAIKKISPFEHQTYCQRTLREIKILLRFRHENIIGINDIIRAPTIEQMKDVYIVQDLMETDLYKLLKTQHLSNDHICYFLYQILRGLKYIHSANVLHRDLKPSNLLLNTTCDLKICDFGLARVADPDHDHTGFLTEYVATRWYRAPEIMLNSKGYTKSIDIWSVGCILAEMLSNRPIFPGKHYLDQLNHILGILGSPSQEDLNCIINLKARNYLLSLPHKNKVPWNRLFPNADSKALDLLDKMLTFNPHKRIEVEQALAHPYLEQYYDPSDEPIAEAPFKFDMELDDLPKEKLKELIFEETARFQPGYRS

Row | IC50 [1] [nM] | IC50 [2] [nM] | SMILES
1 | 1.06 | 0.2 to 1.7 | C[C@@H](NC(=O)Nc1cc2[nH]nc(-c3ccc(C#N)cc3)c2cn1)c1ccccc1 [Example 66, 1-[3-(4-cyanophenyl)-1H-pyrazolo[4,3-c]pyridin-6-yl]-3-[(1R)-1-phenylethyl]urea]
2 | 0.428 | 0.2 to 1.7 | C/C=C/c1n[nH]c2cc(NC(=O)N[C@H](C)c3ccccc3)ncc12 [Example 67, 1-[(1R)-1-phenylethyl]-3-{3-[(1E)-prop-1-en-1-yl]-1H-pyrazolo[4,3-c]pyridin-6-yl}urea]
3 | 106 | – | C[C@@H](NC(=O)Nc1cc2[nH]nc(Br)c2cn1)c1ccc(F)c(Cl)c1 [Example 68, 1-(3-bromo-1H-pyrazolo[4,3-c]pyridin-6-yl)-3-[(1R)-1-(3-chloro-4-fluorophenyl)ethyl]urea]
4 | 0.432 | 0.2 to 1.7 | Cc1cc(-c2n[nH]c3cc(NC(=O)N[C@H](C)c4ccc(F)c(Cl)c4)ncc23)ccn1 [Example 69, 1-[(1R)-1-(3-chloro-4-fluorophenyl)ethyl]-3-[3-(2-methylpyridin-4-yl)-1H-pyrazolo[4,3-c]pyridin-6-yl]urea]
5 | 10.2 | – | Cc1cc(-c2n[nH]c3cc(NC(=O)NC(C)(C)c4ccc(Cl)cc4)ncc23)ccn1 [Example 70, 1-[1-(4-chlorophenyl)-1-methylethyl]-3-[3-(2-methylpyridin-4-yl)-1H-pyrazolo[4,3-c]pyridin-6-yl]urea]
6 | 0.159 | 0.2 to 1.7 | C[C@@H](NC(=O)Nc1cc2[nH]nc(-c3ccc(=O)n(C)c3)c2cn1)c1ccc(F)cc1 [Example 71, 1-[(1R)-1-(4-fluorophenyl)ethyl]-3-[3-(1-methyl-6-oxo-1,6-dihydropyridin-3-yl)-1H-pyrazolo[4,3-c]pyridin-6-yl]urea]
7 | 0.709 | 0.2 to 1.7 | C[C@@H](NC(=O)Nc1cc2[nH]nc(-c3cnn(C)c3)c2cn1)c1ccc(F)c(Cl)c1 [Example 72, 1-[(1R)-1-(3-chloro-4-fluorophenyl)ethyl]-3-[3-(1-methyl-1H-pyrazol-4-yl)-1H-pyrazolo[4,3-c]pyridin-6-yl]urea]
8 | 9.34 | – | C[C@@H](NC(=O)Nc1cc2[nH]nc(-c3ccc(F)cc3)c2cn1)c1ccc(F)c(Cl)c1 [Example 73, 1-[(1R)-1-(3-chloro-4-fluorophenyl)ethyl]-3-[3-(4-fluorophenyl)-1H-pyrazolo[4,3-c]pyridin-6-yl]urea]
9 | 0.603 | 0.2 to 1.7 | C[C@@H](NC(=O)Nc1cc2[nH]nc(-c3cn[nH]c3)c2cn1)c1ccc(F)c(Cl)c1 [Example 74, 1-[(1R)-1-(3-chloro-4-fluorophenyl)ethyl]-3-[3-(1H-pyrazol-4-yl)-1H-pyrazolo[4,3-c]pyridin-6-yl]urea]
10 | 2.64 | – | C[C@@H](NC(=O)Nc1cc2[nH]nc(-c3ccnc(Cl)c3)c2cn1)c1ccc(F)c(Cl)c1 [Example 75, 1-[(1R)-1-(3-chloro-4-fluorophenyl)ethyl]-3-[3-(2-chloropyridin-4-yl)-1H-pyrazolo[4,3-c]pyridin-6-yl]urea]
11 | 56.1 | – | C[C@@H](NC(=O)Nc1cc2[nH]nc(-c3cccc(Cl)c3)c2cn1)c1ccc(F)c(Cl)c1 [Example 76, 1-[(1R)-1-(3-chloro-4-fluorophenyl)ethyl]-3-[3-(3-chlorophenyl)-1H-pyrazolo[4,3-c]pyridin-6-yl]urea]
12 | 15.1 | – | Cc1cc(-c2n[nH]c3cc(NC(=O)NC4(c5ccc(Cl)cc5)CCOCC4)ncc23)ccn1 [Example 77, 1-[4-(4-chlorophenyl)tetrahydro-2H-pyran-4-yl]-3-[3-(2-methylpyridin-4-yl)-1H-pyrazolo[4,3-c]pyridin-6-yl]urea]
13 | 5.39 | – | Cc1cc(-c2n[nH]c3cc(NC(=O)NC4CCc5ccccc54)ncc23)ccn1 (centres unmarked) [Example 78, 1-(2,3-dihydro-1H-inden-1-yl)-3-[3-(2-methylpyridin-4-yl)-1H-pyrazolo[4,3-c]pyridin-6-yl]urea]
14 | 34.5 | – | Cc1cc(-c2n[nH]c3c(Br)c(NC(=O)N[C@H](C)c4ccccc4)ncc23)ccn1 [Example 79, 1-[7-bromo-3-(2-methylpyridin-4-yl)-1H-pyrazolo[4,3-c]pyridin-6-yl]-3-[(1R)-1-phenylethyl]urea]
15 | 1.91 | – | C[C@@H](NC(=O)Nc1cc2[nH]nc(-c3ccnc(F)c3)c2cn1)c1ccc(F)c(Cl)c1 [Example 81, 1-[(1R)-1-(3-chloro-4-fluorophenyl)ethyl]-3-[3-(2-fluoropyridin-4-yl)-1H-pyrazolo[4,3-c]pyridin-6-yl]urea]
16 | 10.8 | – | C[C@@H](NC(=O)Nc1cc2[nH]nc(C3CC3)c2cn1)c1ccc(F)c(Cl)c1 [Example 82, 1-[(1R)-1-(3-chloro-4-fluorophenyl)ethyl]-3-(3-cyclopropyl-1H-pyrazolo[4,3-c]pyridin-6-yl)urea]
17 | 3.28 | – | C[C@@H](NC(=O)Nc1cc2[nH]nc(-c3ccc(C#N)cc3)c2cn1)c1ccc(F)cc1 [Example 83, 1-[3-(4-cyanophenyl)-1H-pyrazolo[4,3-c]pyridin-6-yl]-3-[(1R)-1-(4-fluorophenyl)ethyl]urea]
18 | 6.11 | – | C[C@@H](NC(=O)Nc1cc2[nH]nc(-c3ccc(C#N)cc3)c2cn1)c1cccc(Cl)c1 [Example 84, 1-[(1R)-1-(3-chlorophenyl)ethyl]-3-[3-(4-cyanophenyl)-1H-pyrazolo[4,3-c]pyridin-6-yl]urea]
19 | 29.8 | – | Cc1cc(-c2n[nH]c3cc(NC(=O)NC4(c5ccc(Cl)cc5)CC4)ncc23)ccn1 [Example 85, 1-[1-(4-chlorophenyl)cyclopropyl]-3-[3-(2-methylpyridin-4-yl)-1H-pyrazolo[4,3-c]pyridin-6-yl]urea]

Row | IC50 [1] [nM] | IC50 [2] [nM] | SMILES
20 | 455 | – | Cc1cc(-c2n[nH]c3c(Br)c(NC(=O)N[C@H](C)c4ccc(Cl)cc4)ncc23)ccn1 [Example 86, 1-[7-bromo-3-(2-methylpyridin-4-yl)-1H-pyrazolo[4,3-c]pyridin-6-yl]-3-[(1R)-1-(4-chlorophenyl)ethyl]urea]
21 | 0.748 | 0.2 to 1.7 | Cc1nc2ccc(-c3n[nH]c4cc(NC(=O)N[C@H](C)c5ccccc5)ncc34)cc2s1 [Example 87, 1-[3-(2-methyl-1,3-benzothiazol-6-yl)-1H-pyrazolo[4,3-c]pyridin-6-yl]-3-[(1R)-1-phenylethyl]urea]
22 | 1.16 | 0.2 to 1.7 | C[C@@H](NC(=O)Nc1cc2[nH]nc(-c3ccc4c(c3)OCCO4)c2cn1)c1ccccc1 [Example 88, 1-[3-(2,3-dihydro-1,4-benzodioxin-6-yl)-1H-pyrazolo[4,3-c]pyridin-6-yl]-3-[(1R)-1-phenylethyl]urea]
23 | 1.33 | 0.2 to 1.7 | C[C@@H](NC(=O)Nc1cc2[nH]nc(-c3ccc(S(C)(=O)=O)cc3)c2cn1)c1ccccc1 [Example 89, 1-{3-[4-(methylsulfonyl)phenyl]-1H-pyrazolo[4,3-c]pyridin-6-yl}-3-[(1R)-1-phenylethyl]urea]
24 | 2.19 | – | C[C@@H](NC(=O)Nc1cc2[nH]nc(-c3ccn(C)n3)c2cn1)c1ccccc1 [Example 90, 1-[3-(1-methyl-1H-pyrazol-3-yl)-1H-pyrazolo[4,3-c]pyridin-6-yl]-3-[(1R)-1-phenylethyl]urea]
25 | 0.878 | 0.2 to 1.7 | Cc1cc(-c2n[nH]c3cc(NC(=O)N[C@H](C)c4ccccc4)ncc23)cnn1 [Example 91, 1-[3-(6-methylpyridazin-4-yl)-1H-pyrazolo[4,3-c]pyridin-6-yl]-3-[(1R)-1-phenylethyl]urea]
26 | 6.25 | – | Cc1cc(-c2n[nH]c3c(Cl)c(NC(=O)NCc4ccccc4)ncc23)ccn1 [Example 92, 1-benzyl-3-[7-chloro-3-(2-methylpyridin-4-yl)-1H-pyrazolo[4,3-c]pyridin-6-yl]urea]
27 | 0.383 | 0.2 to 1.7 | C[C@@H](NC(=O)Nc1cc2[nH]nc(-c3cc[n+]([O-])cc3)c2cn1)c1ccccc1 [Example 93, 1-[3-(1-oxidopyridin-4-yl)-1H-pyrazolo[4,3-c]pyridin-6-yl]-3-[(1R)-1-phenylethyl]urea]
28 | 11.9 | – | Cc1cc(-c2n[nH]c3cc(NC(=S)NCc4ccccc4)ncc23)ccn1 [Example 94, 6-[(benzylcarbamothioyl)amino]-3-(2-methylpyridin-4-yl)-1H-pyrazolo[4,3-c]pyridin-5-ium trifluoroacetate]
29 | 0.235 | 0.2 to 1.7 | Cc1cc(-c2n[nH]c3c(F)c(NC(=O)N[C@H](C)c4ccccc4)ncc23)ccn1 [Example 95, 1-[7-fluoro-3-(2-methylpyridin-4-yl)-1H-pyrazolo[4,3-c]pyridin-6-yl]-3-[(1R)-1-phenylethyl]urea]
30 | 10.7 | – | COCCNC(=O)c1n[nH]c2cc(NC(=O)N[C@H](C)c3ccccc3)ncc12 [Example 116, N-(2-methoxyethyl)-6-({[(1R)-1-phenylethyl]carbamoyl}amino)-1H-pyrazolo[4,3-c]pyridine-3-carboxamide]
31 | 5.47 | – | C[C@@H](NC(=O)Nc1cc2[nH]nc(C(=O)NCc3nc4ccncc4[nH]3)c2cn1)c1ccccc1 [Example 117]
32 | 501 | – | CSC1CN(C(=O)c2n[nH]c3cc(NC(=O)N[C@H](C)c4ccccc4)ncc23)C1 [Example 118]
33 | 211 | – | C[C@@H](NC(=O)Nc1cc2[nH]nc(C(=O)NCC3(N(C)C)CCC3)c2cn1)c1ccccc1 [Example 119]
34 | 60.4 | – | C[C@@H](NC(=O)Nc1cc2[nH]nc(C(=O)N3CC(=O)N(C)C3)c2cn1)c1ccccc1 [Example 120]
35 | 3.83 | – | C[C@@H](NC(=O)Nc1cc2[nH]nc(C(=O)NCC3CCOC3)c2cn1)c1ccccc1 (some centres unmarked) [Example 121]
36 | 2.55 | – | C[C@@H](NC(=O)Nc1cc2[nH]nc(C(=O)NCc3cccnn3)c2cn1)c1ccccc1 [Example 122]
37 | 4.49 | – | C[C@@H](NC(=O)Nc1cc2[nH]nc(C(=O)NCC(O)C(F)F)c2cn1)c1ccccc1 (some centres unmarked) [Example 123]
38 | 6.38 | – | C[C@@H](NC(=O)Nc1cc2[nH]nc(C(=O)NCC3(O)CC3)c2cn1)c1ccccc1 [Example 124]
